Reference: ChEMBL document CHEMBL1124048, “9-(trans-2',trans-3'-dihydroxycyclopent-4'-enyl) derivatives of adenine and 3-deazaadenine: potent inhibitors of bovine liver S-adenosylhomocysteine hydrolase” (J Med Chem, 1988)

Biological target: Adenosylhomocysteinase (Homo sapiens) (UniProt P23526)
Settings: Bos taurus
Description: NAD+ content of the enzyme tetramer was measured by HPLC on a C 18 reverse-phase column

Adenosylhomocysteinase (Homo sapiens), sequence (P23526 2-432 limits assumed): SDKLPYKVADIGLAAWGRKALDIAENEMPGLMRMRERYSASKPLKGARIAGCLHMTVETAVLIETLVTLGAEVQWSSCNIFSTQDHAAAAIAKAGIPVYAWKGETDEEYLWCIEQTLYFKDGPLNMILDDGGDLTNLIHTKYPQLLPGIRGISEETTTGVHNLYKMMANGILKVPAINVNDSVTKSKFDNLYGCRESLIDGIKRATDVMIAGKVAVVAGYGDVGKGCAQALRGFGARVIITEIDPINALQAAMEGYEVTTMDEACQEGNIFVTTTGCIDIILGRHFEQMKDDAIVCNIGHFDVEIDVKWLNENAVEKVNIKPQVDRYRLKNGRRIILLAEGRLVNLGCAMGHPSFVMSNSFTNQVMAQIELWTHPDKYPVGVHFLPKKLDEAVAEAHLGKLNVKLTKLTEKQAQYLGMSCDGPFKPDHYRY

NAD content (M (M of enzyme)-1)	SMILES
0.19	Nc1ncnc2c1ncn2[C@@H]1C=C[C@@H](O)[C@H]1O
0	Nc1ncnc2c1ncn2[C@@H]1C=C(CO)[C@@H](O)[C@H]1O
